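Grown in 96-well plates, cells were treated for 48 hours with each compound at five concentrations. Insufficient inhibition: endpoint recorded as highest concentration tested. GI50 = concentration required for 50% inhibition of growth. Definition used: TGI = concentration required for complete inhibition of growth.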
Legend:
Assay in all cases: NCI-60 cell line screen, 48 h
NCI-H226 lung = tested on: NCI-H226 lung
EKVX NSCLC = tested on: EKVX NSCLC
CCRF-CEM leukemia = tested on: CCRF-CEM leukemia
OVCAR-5 ovarian = tested on: OVCAR-5 ovarian
SNB-75 CNS = tested on: SNB-75 CNS
BT-549 breast = tested on: BT-549 breast
SK-MEL-5 melanoma = tested on: SK-MEL-5 melanoma
PC-3 prostate = tested on: PC-3 prostate
DU-145 prostate = tested on: DU-145 prostate
HCT-116 colon = tested on: HCT-116 colon

Row | SMILES | TGI (NCI-H226 lung) [µM] | TGI (EKVX NSCLC) [µM] | TGI (CCRF-CEM leukemia) [µM] | TGI (OVCAR-5 ovarian) [µM] | TGI (SNB-75 CNS) [µM] | TGI (BT-549 breast) [µM] | TGI (SK-MEL-5 melanoma) [µM] | TGI (PC-3 prostate) [µM] | TGI (DU-145 prostate) [µM] | TGI (HCT-116 colon) [µM] | GI50 (NCI-H226 lung) [µM] | GI50 (EKVX NSCLC) [µM] | GI50 (BT-549 breast) [µM] | GI50 (SK-MEL-5 melanoma) [µM] | GI50 (OVCAR-5 ovarian) [µM] | GI50 (SNB-75 CNS) [µM] | GI50 (PC-3 prostate) [µM] | GI50 (DU-145 prostate) [µM] | GI50 (HCT-116 colon) [µM] | GI50 (CCRF-CEM leukemia) [µM]
1 | O=C(NC1CCCCC1)NS(=O)(=O)c1ccc2c(c1)CCC2 | > 100 | > 100 | > 100 | > 100 | > 100 |  |  |  |  |  |  |  |  |  |  |  |  |  |  | 
2 | O=C1OC(=O)C(=C\c2ccc3c(c2)OCO3)/C1=C/c1ccc2c(c1)OCO2 | > 100 | > 100 | > 88.6 | > 100 |  | > 100 | > 100 | > 100 | > 100 | > 100 |  |  |  |  |  |  |  |  |  | 
3 | CCN(CC)CC1c2ccccc2C(CNc2ccccc2)N1C (stereo not drawn) |  | > 100 | > 100 | > 100 | > 100 |  | > 100 |  |  |  |  |  |  |  |  |  |  |  |  | 
4 | O=C(/C=C\c1cccc([N+](=O)[O-])c1)/C=C/c1cccc([N+](=O)[O-])c1 | > 100 | > 100 |  | > 100 | 66.6 | 12.5 | > 100 | > 100 | 56 | 0.407 | 15.4 | > 100 | 3.48 | 61.3 | 19.7 | 13.3 | 3.17 | 3.49 | 0.2 | 
5 | N#CC(=C1C=CC(=NO)C=C1)c1ccc(Cl)cc1 |  |  | 9.01 | 28.8 | > 100 |  | 21.3 |  |  | 21.6 |  |  |  |  |  |  |  |  |  | 
6 | COc1ccc(-c2[nH]c3ccccc3c2-c2ccc(OC)cc2)cc1 |  | 42.9 | > 100 | 33.9 | 6.61 |  | 15.2 | 25.3 | 11.4 | 14.6 |  | 5.05 |  | 3.65 | 15.4 | 1.47 | 4.07 | 3.58 | 3.93 | 2.85
7 | CC(=O)CN(Cc1cc(C)c2c(c1)c1ccccc1n2Cc1ccccc1)S(=O)(=O)c1ccc(C)cc1 | > 100 | > 100 | > 100 |  | > 100 |  | > 100 |  |  | > 100 |  |  |  |  |  |  |  |  |  | 
8 | Cc1ccc2c(C3Cc4ccccc4N3C(=O)/C=C\C(=O)O)c(C)[nH]c2c1 (stereo not drawn) | > 100 | > 100 | 62.5 | > 100 | > 100 |  | > 100 |  |  | > 100 |  |  |  |  |  |  |  |  |  | 
9 | Fc1ccc(C2SCc3nc4ccccc4n32)c(F)c1 (stereo not drawn) | > 100 | > 100 | > 100 | > 100 | > 100 |  | 79.6 |  |  | > 100 |  |  |  |  |  |  |  |  |  | 
10 | COc1ccc(C=O)c([N+](=O)[O-])c1 | > 100 | > 100 | 76.3 |  | > 100 |  | > 100 |  |  | 26.4 |  |  |  |  |  |  |  |  |  | 
11 | CCCCCCCCCCCCCCCCCC1=NCCN1CCOC1=C(Cl)C(=O)c2ccccc2C1=O |  | 3.32 | 7.17 | 5.27 | 8.54 | 6.12 | 6.75 | 4.27 | 18.1 | 3.43 |  | 1.46 | 2.46 | 2.36 | 2.29 | 2.2 | 1.85 | 6.09 | 1.82 | 0.527
12 | CC#CCC1CCC(OCC)=CC1=O (stereo not drawn) | > 100 | > 100 | > 100 | > 100 | > 100 |  | > 100 |  |  | > 100 |  |  |  |  |  |  |  |  |  | 
13 | CC(=O)NC(CCCNC(=O)N(CCCl)N=O)C(=O)NCc1ccccc1 (stereo not drawn) | > 100 | > 100 | > 100 |  | > 100 |  |  |  |  | > 100 |  |  |  |  |  |  |  |  |  | 
14 | CN=c1ccc2nc3ccc(N)cc3sc-2c1 | 41.4 |  | 17.9 | 23.7 | 28.7 | 44.4 | 1.88 | 8.85 | 23.5 | 10.3 | 15.2 |  | 11.5 | 0.448 | 9.54 | 10.8 | 0.276 | 10.7 | 1.29 | 0.584
15 | O=C1/C(=C/c2ccccc2[N+](=O)[O-])Cc2ccccc21 | 9.03 |  |  | 5.36 |  | 4.49 | 14 | 5.33 | 3.51 | 2.57 | 2.1 |  | 1.83 | 3.11 | 2.19 |  | 1.83 | 1.86 | 1.23 | 
16 | Cc1ccc(-c2nnc(-c3nn(-c4ccccc4)c4nc5ccccc5nc34)o2)cc1 | 30 | > 100 | 64.3 | > 100 | 8.3 |  | 25.8 |  |  | 25 |  |  |  |  |  |  |  |  |  | 
17 | O=C1OC(Cc2ccccc2)(N2CCCC2=O)C1c1ccccc1 (stereo not drawn) | > 100 | > 100 | > 100 | > 100 | > 100 |  | > 100 |  |  | > 100 |  |  |  |  |  |  |  |  |  | 
18 | OCc1ccc(N2CCCC2c2ccccc2)cc1Cl (stereo not drawn) | 0.325 |  | 39.7 | 1.52 | 29 | 18.7 | 9.36 | 29 | 30.8 | 10.6 | 0.126 |  | 7.12 | 3.33 | 0.351 | 3.28 | 8.41 | 12.3 | 0.744 | 6.44
19 | CCOC(=O)C1C(=S)NC(=O)C1C#N (stereo not drawn) |  | > 100 | > 100 | > 100 | > 100 |  | > 100 |  |  |  |  |  |  |  |  |  |  |  |  | 
20 | O=C1NC(=O)C2C(=O)NC(=O)C1C2c1c(Cl)cccc1Cl (stereo not drawn) | > 100 | > 100 | > 69.6 | > 100 | > 100 |  | > 100 |  |  | > 58.8 |  |  |  |  |  |  |  |  |  | 
21 | Fc1ccc(/C=N/n2c(-c3ccc(F)c(Cl)c3)nn(CNc3ccccc3C(F)(F)F)c2=S)cc1 | > 100 | > 100 | > 100 | > 100 | > 100 |  | > 100 | > 100 | > 100 | > 100 | 69.5 | 37.2 |  | 33 | > 100 | > 100 | 37.4 | > 100 | 55.4 | 51.6

— PubChem BioAssay (NCI)
